Data from patent US7253286B2, “Nitrogen-containing aromatic derivatives” (Eisai Co., Ltd, priority 2000, dated 2007).

Tested on: Human Umbilical Vein Endothelial Cells (HUVECs)
Experiment: Inhibition against sandwich tube formation by vascular endothelial cells in response to stimulation by VEGF
Assay type: cell-based
Settings: HUVEC in collagen gel sandwich, stimulation by VEGF (25 ng/ml VEGF and 10 ng/ml EGF), 4th day, total tube length, read-out: IC50 (concentration required for 50% inhibition of tube formation)
Procedure, shortened: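 HUVECs were sandwiched between collagen gel layers in serum-free medium with 25 ng/ml VEGF plus 10 ng/ml EGF, with test substance added above the gel at 37 °C. On day 4 tubes were MTT-stained and total tube length measured by image analysis. IC50 is the concentration halving tube length relative to no-compound wells.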

| SMILES | IC50 |
| --- | --- |
| COCCOc1cc2nccc(Oc3ccc(NC(=O)Nc4ccc(F)cc4)c(F)c3)c2cc1C#N [Example 100, N-(4-(6-Cyano-7-(2-methoxyethoxy)-4-quinolyl)oxy-2-fluorophenyl)-N′-(4-fluorophenyl)urea] | 6.3 nM |
| COc1cc2nccc(Oc3ccc(NC(=O)NC4CC4)c(Cl)c3)c2cc1C(=O)NCCS(C)(=O)=O [Example 404, N6-(2-(Methylsulfonyl)ethyl)-4-(3-chloro-4-(((cyclopropylamino)carbonyl)amino)phenoxy)-7-methoxy-6-quinolinecarboxamide] | 2.8 nM |
| NC(=O)c1cc2c(Oc3ccc(NC(=O)NC4CC4)c(F)c3)ccnc2cc1OCCCN1CCOCC1 [Example 374, 4-(4-(Cyclopropylaminocarbonyl)amino-3-fluorophenoxy)-7-(3-(4-morpholino)propoxy)-6-quinolinecarboxamide] | 3 nM |
| CCNC(=O)n1ccc2cc(Oc3ccnc4cc(OC)c(C(N)=O)cc34)ccc21 [Example 316, 6-Carbamoyl-4-(1-ethylcarbamoyl-1H-indol-5-yloxy)-7-methoxyquinoline] | 1 nM |
| N#CCCCOc1cc2nccc(Oc3ccc(NC(=O)Nc4ccc(F)cc4F)c(F)c3)c2cc1C#N [Example 55, N-(4-(6-Cyano-7-(3-cyanopropoxy)-4-quinolyl)oxy-2-fluorophenyl)-N′-(2,4-difluorophenyl)urea] | 35 nM |
